Experimental findings from patent publication US6544727B1, “Methods and devices for the removal of psoralens from blood products” (Cerus Corporation, priority 1995, dated 2003) are described below.

The structures appear in SMILES notation. Like-named read-outs stand apart in the source and are kept apart here. Where only a bound is given, the exact number is not on record here.

Data set [1] concerns Salmonella tester strain TA98. Put plainly: Ames test, strain TA98. The note with it: TA98 − S9; 10 μg/plate. On the procedure:
(§1) In this example the compounds of the present invention are tested for their dark mutagenicity using an Ames assay. The procedures used for the Salmonella mutagenicity test as described in detail by Maron and Ames were followed exactly. Maron, D. M. and B. N. Ames, Mutation Research 113: 173 ( 1983). A brief description for each procedure is given here. The tester strains TA97a, TA98, TA100, TA102, TA1537 and TA1538 were obtained from Dr. Ames. TA97a, TA98, TA1537 and TA1538 are frameshift tester strains. TA100 and TA102 are base-substitution tester strains. Upon receipt each strain was cultured under a variety of conditions to confirm the genotypes specific to the strains.
(§2) The first tests done with the strains were to determine the range of spontaneous reversion for each of the strains. With each mutagenicity experiment the spontaneous reversion of the tester strains to histidine independence was measured and expressed as the number of spontaneous revertants per plate. This served as the background controls.
For all experiments, the pre-incubation procedure was used. In this procedure one vial of each tester strain was thawed and 20 μL of this culture was added to 6 mL of Oxoid Nutrient Broth #2. This solution was allowed to shake for 10 hours at 37° C. In the pre-incubation procedure, 0.1 mL of this overnight culture was added to each of the required number of sterile test tubes. To half of the tubes 0.5 mL of a 10% S-9 solution containing Aroclor 1254 induced rat liver extract (Molecular Toxicology Inc., Annapolis, Md.), and MgCl2, KCl, glucose-6-phosphate, NADP, and sodium phosphate buffer (Sigma, St. Louis, Mo.) were added. To the other half of the tubes 0.5 mL of 0.2M sodium phospate buffer, pH 7.4, was used in place of the S-9 mixture (the—S9samples). […] The 0.7 mL mixture was vortexed and then pre-incubated while shaking for 20 minutes at 37° C. After shaking, 2 mL of molten top agar supplemented with histidine and biotin were added to the 0.7 mL mixture and immediately poured onto a minimal glucose agar plate (volume of base agar was 20 mL). The top agar was allowed 30 minutes to solidify and then the plates were inverted and incubated for 44 hours at 37° C. After incubation the number of revertant colonies on each plate were counted. […] (“n” represents the number of replicates performed for each data point.)
For orientation: The Ames test detects mutagens through reverse mutation in bacteria.

The test system of data set [2] is Salmonella tester strain TA1537. The data set can be described thus: Ames test, strain TA1537. The note with it: TA1537 − S9; 10 μg/plate. On the procedure: as §1, §2
(§3) For all experiments, the pre-incubation procedure was used. In this procedure one vial of each tester strain was thawed and 20 μL of this culture was added to 6 mL of Oxoid Nutrient Broth #2. This solution was allowed to shake for 10 hours at 37° C. In the pre-incubation procedure, 0.1 mL of this overnight culture was added to each of the required number of sterile test tubes. To half of the tubes 0.5 mL of a 10% S-9 solution containing Aroclor 1254 induced rat liver extract (Molecular Toxicology Inc., Annapolis, Md.), and MgCl2, KCl, glucose-6-phosphate, NADP, and sodium phosphate buffer (Sigma, St. Louis, Mo.) were added. To the other half of the tubes 0.5 mL of 0.2M sodium phospate buffer, pH 7.4, was used in place of the S-9 mixture (the—S9samples). Finally 0.1 mL of the test solution containing either 0, 0.1, 0.5, 1, 5, 10, 50, 100, 250, or 500 μg/mL of the test compound was added. The 0.7 mL mixture was vortexed and then pre-incubated while shaking for 20 minutes at 37° C. After shaking, 2 mL of molten top agar supplemented with histidine and biotin were added to the 0.7 mL mixture and immediately poured onto a minimal glucose agar plate (volume of base agar was 20 mL). The top agar was allowed 30 minutes to solidify and then the plates were inverted and incubated for 44 hours at 37° C. After incubation the number of revertant colonies on each plate were counted. […] (“n” represents the number of replicates performed for each data point.)

In a further data set the test system is HIV-1. The settings on record: 1 minute irradiation.
In the next data set the test system is R17 bacteriophage. The data set can be described thus: R17 bacteriophage inactivation assay, varying compound concentration. The format is cell-based. The settings on record: for R17 Log Kill: starting titer approx. 7.1 logs; for R17 inactivation efficiency compared with AMT or 8-MOP (in words): varying concentration, Tables 6-9, FIGS. 6-10. On the procedure: An r-17 bacteriophage assay was used in this example to predict pathogen inactivation efficiency and to determine nucleic acid binding of the photoreactive binding compounds of the present invention. In the r-17 assay, the bacteriophage was placed in a solution with each compound tested and was then irradiated. The ability of the phage to subsequently infect bacteria and inhibit their growth was measured. The bacteriophage was selected for its relatively accessible nucleic acid such that the culture growth inhibition would accurately reflect nucleic acid damage by the test compounds. The bacteriophage assay for nucleic acid binding to test compounds offers a safe and inexpensive procedure to identify compounds likely to display efficient pathogen inactivation.
The R17 was grown up in Hfr 3000 bacteria, approximate titer 5×10^11. (R17 and Hfr 3000 were obtained from American Tissue Culture Collection (ATCC), Washington, D.C.) The R17 phage stock was added to a solution of 15% fetal bovine serum in Dulbecco's Modified Eagles Medium (DMEM) to a final phage concentration of 10^9/mL. An aliquot (0.5 mL) was transferred to a 1.5 mL snap-top polyethylene tube. An aliquot (0.004-0.040 mL) of the test compound stock solution prepared in water, ethanol or dimethylsulfoxide at 0.80-8.0 mM was added to the tube. Compounds were tested at concentrations between 4 μM and 320 μM. […] The tubes were placed in a light device as described in EXAMPLE 1 and irradiated for between 1 and 10 minutes. Sterile 13 mL dilution tubes were prepared; each test compound required one tube with 0.4 mL of Luria broth (LB) and five tubes containing 0.5 mL of LB broth. To make the dilutions, a 0.100 mL aliquot of the irradiated solution of phage and test compound was added to the first dilution tube of 0.4 mL of media then 0.020 mL of this solution was added to the second tube of 0.5 mL medium (1:25). The second solution was then diluted serially (1:25) into the remaining tubes. To each diluted sample was added 0.050 mL of Hfr 3000 bacteria cultured overnight and 3 mL of molten LB top agar and the mixed materials were poured onto LB broth plates. After the top agar hardened, the plates were incubated at 37° C. overnight. The plaque forming units were then counted the following morning and the titer of the phage remaining after phototreatment was calculated based on the dilution factors.
The following controls were run: the “phage only” in which phage was not treated with test compound and not irradiated (listed as “starting titer” in the tables below); the “UV only” in which the phage was irradiated in the absence of test compound; and the “dark” control in which the phage/test compound solution was not irradiated before it was diluted and plated.

A further data set concerns mouse reticulocytes. The note with it: positive control, 30 mg/kg administered only once, on day three, blood on day 5; 30 mg/kg. How it is done:
Male Balb/c mice were then injected with 0.1 ml of a compound solution via the tail vein. At least 3 mice were injected per dose level. Saline only was used as a negative control. For a positive control, cyclophosphamide (cycloPP) was administered at a dose of 30 mg/kg. In the experimental group, the injections were repeated once per day for four days. In the positive control group, the sample was administered only once, on day three. On day 5, several microliters of blood were withdrawn from each subject and smeared on a glass slide. Cells were fixed in absolute methanol and stored in a slide rack.
For analysis, cells were stained with acridine orange and visualized under a fluorescence microscope by counting: (i) the number of reticulocytes per 5000 erythrocytes; and (ii) the number of micronucleated reticulocytes per 1000 reticulocytes. Reticulocytes were distinguished by their red fluorescence due to the presence of RNA. Micronuclei were distinguished by their green fluorescence due to the presence of DNA. The percentage of reticulocytes (%PCE) was then calculated. A decrease in the frequency of […] in the percentage of reticulocytes, is an indication of bone marrow toxicity. The percentage of reticulocytes with micronuclei (%PCE with MN) was also calculated. An increase in %PCE with MN is a measure of clastogenicity.
After initial results were determined, the experiment was repeated using increased dose levels, until: (i) Micronucleus formation was seen; or (ii) Bone marrow toxicity was observed; or (iii) The lethal dose was reached; or (iv) A dose of 5 g/kg was administered.

For data set [3], the system named is Salmonella tester strain TA102. Put plainly: Ames test, strain TA102. The settings on record: TA102 − S9; 100 μg/plate. On the procedure:
as §1, §2, §3

Data set [4] has as its system Salmonella tester strain TA1538. The settings on record: TA1538 − S9; 1.5 μg/plate. How it is done:
as §1, §2, §3

Data set [5] deals with Salmonella tester strain TA100. The note with it: TA100 − S9; 1.5 μg/plate. On the procedure:
as §1, §2, §3

Setting [6] is: 16 μM, starting titer approximately 5 logs (Table 10).
The mark [7] stands for this setting: 32 μM, starting titer approximately 5 logs (Table 10).
Setting [8] is: 64 μM, starting titer approximately 5 logs (Table 10).

In the case of `Nc1c2ccccc2nc2ccccc12` [9-Amino-acridine, reference compound], the “revertant colonies per plate” value in data set [1] and in data set [2] was 284 throughout.

As to `Cc1oc2c(C)c3oc(=O)cc(C)c3cc2c1CNCCCN` [Compound 5, 4′-(5-amino-2-aza)pentyl-4,5′,8-trimethylpsoralen], the “HIV Log Kill” value is 0.9 log in the data set with HIV-1 (setting [6]), 1.3 log in the data set with HIV-1 (setting [7]) and over 2.6 log with HIV-1 (setting [8]). Also, the “R17 Log Kill” value in the data set on R17 bacteriophage (16 μM, 1 minute irradiation = 1.2 J/cm^2 (Table 8)) was 5.6 log; in the data set with R17 bacteriophage (32 μM, 1 minute irradiation = 1.2 J/cm^2 (Table 8)), over 6.1 log; in the data set with R17 bacteriophage (64 μM, 1 minute irradiation = 1.2 J/cm^2 (Table 8)), over 6.1 log. Also, the “R17 inactivation efficiency compared with AMT or 8-MOP (in words)” value in the data set on R17 bacteriophage is listed as “significantly higher inactivation efficiency than does AMT”.

For the compound `Cc1cc(=O)oc2c(C)c3oc(CNCCN)c(C)c3cc12` [Compound 16, 5′-(4-amino-2-aza)butyl-4,4′,8-trimethylpsoralen], the “R17 inactivation efficiency compared with AMT or 8-MOP (in words)” value in the data set with R17 bacteriophage is “significantly higher inactivation efficiency than does AMT”.

Turning to `Cc1oc2c(C)c3oc(=O)cc(C)c3cc2c1COCCOCCNCCCCN` [Compound 8, 4′-(12-amino-8-aza-2,5-dioxa)dodecyl-4,5′,8-trimethylpsoralen], the “HIV Log Kill” value in the data set with HIV-1 (setting [6]) was found to be 1.1 log; with HIV-1 (setting [7]) it was 1.9 log; in the data set on HIV-1 (setting [8]) it was 3.7 log.

Consider `Cc1oc2c(C)c3oc(=O)cc(C)c3cc2c1CNCCCOCCCCOCCN` [Compound 9, 4′-(13-amino-2-aza-6,11-dioxa)tridecyl-4,5′,8-trimethylpsoralen], for which the “HIV Log Kill” value in the data set with HIV-1 (16 μM, starting titer approximately 5.4 logs (Table 11)) is given as 0.8 log; with HIV-1 (32 μM, starting titer approximately 5.4 logs (Table 11)), 1.4 log; in the data set with HIV-1 (64 μM, starting titer approximately 5.4 logs (Table 11)), 2.7 log.

For `Cc1oc2c(C)c3oc(=O)cc(C)c3cc2c1COCCOCCN` [Compound 7, 4′-(7-amino-2,5-oxa)heptyl-4,5′,8-trimethylpsoralen], the “HIV Log Kill” value with HIV-1 (setting [6]) came to 0.8 log; in the data set on HIV-1 (setting [7]) it was 2.1 log; with HIV-1 (setting [8]) it was 3.5 log. The “R17 Log Kill” value was over 6 log with R17 bacteriophage (16 μM, 1 minute irradiation (Table 9)); over 6 log in the data set on R17 bacteriophage (32 μM, 1 minute irradiation (Table 9)); over 6 log in the data set with R17 bacteriophage (64 μM, 1 minute irradiation (Table 9)).

With `O=P1(N(CCCl)CCCl)NCCCO1` (stereo not drawn) [CylcoPP, cyclophosphamide, reference compound], in the data set with mouse reticulocytes, the “PCE + MN (%)” value was determined as 2.09 ± 0.17% and the “PCE/RBC (%)” value stood at 0.99 ± 0.33%.

As for `OO` [hydrogen peroxide], in data set [3], the “revertant colonies per plate” value is 660.

Consider `[N-]=[N+]=[N-]` [Sodium Azide, sodium azide, reference compound], for which the “revertant colonies per plate” value in data set [4] and in data set [5] was 965 in each case.
